Reference: US7569585B2, “1, 5-diaminopentan-3-ol compounds and related treatment methods” (Gruenenthal GmbH, priority 2001, dated 2009)

target: T1, human alpha2A-adrenergic receptor (Homo sapiens, UniProt P08913); test: Binding affinity to human alpha2A-adrenergic receptor ([3H]-MK-912 displacement, HT29 cell membrane preparation); details: compound concentration 10 NM [sic] (method: 10 μmol/l); displacement of 0.5 nmol/l [3H]-MK-912; HT29 membranes; pH 7.4
T1 construct: human HT29 cells (RB-HAL2A, NEN, Zaventem, Belgium), which endogenously express the alpha2A-adrenergic receptor; purchased NEN, Zaventem, Belgium RB-HAL2A; host or cells: human HT29 cells (endogenous expression), membrane preparation
T1 sequence (P08913 1-465): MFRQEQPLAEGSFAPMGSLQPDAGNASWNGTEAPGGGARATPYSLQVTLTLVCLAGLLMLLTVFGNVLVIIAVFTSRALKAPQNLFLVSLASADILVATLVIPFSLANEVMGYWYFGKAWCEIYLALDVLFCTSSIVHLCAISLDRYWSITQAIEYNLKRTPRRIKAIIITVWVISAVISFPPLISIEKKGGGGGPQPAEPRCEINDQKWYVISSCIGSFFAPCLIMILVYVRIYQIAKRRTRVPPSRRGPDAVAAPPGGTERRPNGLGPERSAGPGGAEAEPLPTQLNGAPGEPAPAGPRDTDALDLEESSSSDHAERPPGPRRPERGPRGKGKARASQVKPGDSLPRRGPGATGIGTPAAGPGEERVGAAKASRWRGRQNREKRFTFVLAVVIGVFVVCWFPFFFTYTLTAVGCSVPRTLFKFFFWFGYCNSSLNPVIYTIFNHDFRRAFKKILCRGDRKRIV
Procedure: Method for Determining the Binding Affinity to Human Alpha2A-adrenergic Receptor
The affinity of the compounds according to the invention to the pain-relevant alpha2A-receptor was investigated as follows.
The receptor affinity of the compounds according to the invention to human alpha2A-adrenergic receptor was determined in a microtiter plate batch. For this purpose, the compounds to be tested were incubated in a concentration of 10 μmol/l with a receptor membrane preparation of human HT29 cells (RB-HAL2A, NEN, Zaventem, Belgium), which endogenously express the alpha2A-adrenergic receptor, at a protein concentration of 40 μg protein/250 μl incubation batch in the presence of 0.5 nmol/l of the radioactively marked ligands [3H]-MK-912 (NET-1059, NEN, Zaventem, Belgium) for 30 minutes, with exclusion of light, at ambient temperature. A 25 mmol/l sodium phosphate buffer at a pH of 7.4 was used as the buffer system. The unspecific bond was determined in the presence of 10 μmol/l phentolamine. After incubation, the microtiter plates were filtered on glass fiber microtiter filter plates (Whatman GF/B, Hassel, Munich) using a Brandel Cell Harvester (MPRI-96T type, Hassel, Munich) and after drying of the glass fiber filter plates and subsequent charging of the plates with 35 μl of a scintillator (Ultima Gold, Canberra-Packard, Freiburg) were measured in a microtiter plate counter (1450 Microbeta Trilux, PerkinElmer-Wallac, Freiburg) after a delay of at least 90 minutes. The glass fiber microtiter filter plates were each pretreated prior to filtration of the incubation plates for 30 minutes with 50 μl per indentation of a 25 mmol/l sodium phosphate buffer supplemented by 0.5% (v/v) polyethylene imine at a pH of 7.4. The percentage inhibition effect of the compounds was calculated as a displacement of the radioactive ligand from its specific bond to the human alpha2A-adrenergic receptor.
Determining the Binding Affinity to Human Alpha2A-adrenergic Receptor
The binding affinities to human alpha2A-adrenergic receptor were determined by the foregoing methods.

inhibition at 10 µM [%]	SMILES
100	OC1(Cc2ccc(Cl)cc2Cl)C(CN2CCCCC2)CCCC1CN1CCCCC1 (stereo not drawn) [1-(2,4-dichlorobenzyl)-2,6-bis-piperidin-1-ylmethyl-cyclohexanol]
100	Cc1ccc(C)c(CC2(O)C(CN3CCCCC3)CCCC2CN2CCCCC2)c1 (stereo not drawn) [1-(2,5-dimethyl-benzyl)-2,6-bis-piperidin-1-ylmethyl-cyclohexanol]
68	OC1(Cc2c(F)cccc2Cl)C(CN2CCCCC2)CCCC1CN1CCCCC1 (stereo not drawn) [1-(2-chloro-6-fluorobenzyl)-2,6-bis-piperidin-1-ylmethyl-cyclohexanol]
100	OC1(Cc2ccccc2Cl)C(CN2CCCCC2)CCCC1CN1CCCCC1 (stereo not drawn) [1-(2-chlorobenzyl)-2,6-bis-piperidin-1-ylmethyl-cyclohexanol]
30	COc1ccccc1C1(O)C(CN2CCCCC2)CCCC1CN1CCCCC1 (stereo not drawn) [1-(2-methoxy-phenyl)-2,6-bis-piperidin-1-ylmethyl-cyclohexanol]
100	Cc1ccccc1CC1(O)C(CN2CCCCC2)CCCC1CN1CCCCC1 (stereo not drawn) [1-(2-methyl-benzyl)-2,6-bis-piperidin-1-ylmethyl-cyclohexanol]
33	OC1(c2cc(Cl)cc(Cl)c2)C(CN2CCCCC2)CCCC1CN1CCCCC1 (stereo not drawn) [1-(3,5-dichlorophenyl)-2,6-bis-piperidin-1-ylmethyl-cyclohexanol]
38	OC1(c2ccc(F)c(Cl)c2)C(CN2CCCCC2)CCCC1CN1CCCCC1 (stereo not drawn) [1-(3-chloro-4-fluorophenyl)-2,6-bis-piperidin-1-ylmethyl-cyclohexanol]
98	OC1(Cc2cccc(Cl)c2)C(CN2CCCCC2)CCCC1CN1CCCCC1 (stereo not drawn) [1-(3-chlorobenzyl)-2,6-bis-piperidin-1-ylmethyl-cyclohexanol]
51	OC1(c2cccc(Cl)c2)C(CN2CCCCC2)CCCC1CN1CCCCC1 (stereo not drawn) [1-(3-chlorophenyl)-2,6-bis-piperidin-1-ylmethyl-cyclohexanol]
59	OC1(Cc2cccc(F)c2)C(CN2CCCCC2)CCCC1CN1CCCCC1 (stereo not drawn) [1-(3-fluorobenzyl)-2,6-bis-piperidin-1-ylmethyl-cyclohexanol]
48	OC1(c2cccc(F)c2)C(CN2CCCCC2)CCCC1CN1CCCCC1 (stereo not drawn) [1-(3-fluorophenyl)-2,6-bis-piperidin-1-ylmethyl-cyclohexanol]
80	COc1cccc(CC2(O)C(CN3CCCCC3)CCCC2CN2CCCCC2)c1 (stereo not drawn) [1-(3-methoxy-benzyl)-2,6-bis-piperidin-1-ylmethyl-cyclohexanol]
100	Cc1cccc(CC2(O)C(CN3CCCCC3)CCCC2CN2CCCCC2)c1 (stereo not drawn) [1-(3-methyl-benzyl)-2,6-bis-piperidin-1-ylmethyl-cyclohexanol]
26	OC1(c2ccc(Cl)c(C(F)(F)F)c2)C(CN2CCCCC2)CCCC1CN1CCCCC1 (stereo not drawn) [1-(4-chloro-3-trifluoromethyl-phenyl)-2,6-bis-piperidin-1-ylmethyl-cyclohexanol]
88	OC1(Cc2ccc(Cl)cc2)C(CN2CCCCC2)CCCC1CN1CCCCC1 (stereo not drawn) [1-(4-chlorobenzyl)-2,6-bis-piperidin-1-ylmethyl-cyclohexanol]
87	OC1(Cc2ccc(F)cc2)C(CN2CCCCC2)CCCC1CN1CCCCC1 (stereo not drawn) [1-(4-fluorobenzyl)-2,6-bis-piperidin-1-ylmethyl-cyclohexanol]
56	OC1(c2cccc(C(F)(F)F)c2)C(CN2CCCCC2)CCCC1CN1CCCCC1 (stereo not drawn) [2,6-bis-piperidin-1-ylmethyl-1-(3-trifluoromethyl-phenyl)-cyclohexanol]
